The text below walks through data of article PMC11995724, “Antibiotic target discovery by integrated phenotypic and activity-based profiling of electrophilic fragments” (Cell chemical biology, 2025).

SMILES strings stand for the structures. Counter-ions that a name gives are not always drawn.

The term viability denotes a read-out of living cells in per cent, often relative to untreated cells.

This data set is described as follows: in vitro. Particulars: human, hek293t cells.
As for `Cc1cc(C)cc(N(CCC#N)C(=O)CCl)c1` [5-P18, 2-chloro-N-(2-cyanoethyl)-N-(3,5-dimethylphenyl)acetamide], the viability at 48 h, 25 µM amounted to 0.915%.

As to `O=C(CN1CCN(C(=O)CCl)CC1)Nc1cccc(F)c1` [5-P19, 2-[4-(2-chloroacetyl)piperazin-1-yl]-N-(3-fluorophenyl)acetamide hydrochloride], the viability at 48 h, 25 µM is 1.84%.

Turning to `Cc1cccc(C)c1NC(=O)CCl` [5-P20, 2-chloro-N-(2,6-dimethylphenyl)acetamide], the viability at 48 h, 25 µM is 112%.

Consider `CC(Cl)C(=O)N1Cc2ccoc2CC(C)(C)C1` (centres unmarked) [5-P21, 2-chloro-1-{7,7-dimethyl-4H,5H,6H,7H,8H-furo[3,2-c]azepin-5-yl}propan-1-one], for which the viability at 48 h, 25 µM was found to be 132%.

Regarding `COc1ccc(C)cc1NC(=O)C(C)Cl` (centres unmarked) [5-P22, 2-chloro-N-(2-methoxy-5-methylphenyl)propanamide], the viability at 48 h, 25 µM is 108%.

For the compound `O=C(CCl)Nc1cccc(NC(=O)c2ccccc2)c1` [6-A03, N-[3-(2-chloroacetamido)phenyl]benzamide], the viability at 48 h, 25 µM was -0.0459%.

Regarding `COc1c(C)cnc(CN2CCC(N(C)C(=O)C(C)Cl)CC2)c1C` (centres unmarked) [6-A04, 2-chloro-N-{1-[(4-methoxy-3,5-dimethylpyridin-2-yl)methyl]piperidin-4-yl}-N-methylpropanamide], the viability at 48 h, 25 µM was 124%.

On to `O=C(CCl)Nc1cc(-n2cnnn2)ccc1Cl` [6-A05, 2-chloro-N-[2-chloro-5-(1H-1,2,3,4-tetrazol-1-yl)phenyl]acetamide], for which the viability at 48 h, 25 µM was determined as 0.726%.

Turning to `Cc1csc(Cl)c1NC(=O)CCl` [6-A06, 2-chloro-N-(2-chloro-4-methylthiophen-3-yl)acetamide], the viability at 48 h, 25 µM worked out at 0.632%.

As for `CC(Cl)C(=O)NC(C)c1ccc2c(c1)CCCC2` (centres unmarked) [6-A07, 2-chloro-N-[1-(5,6,7,8-tetrahydronaphthalen-2-yl)ethyl]propanamide], the viability at 48 h, 25 µM worked out at 93.1%.

Take `O=C(CCl)NCCOc1ccc(F)cc1` [6-A08, 2-chloro-N-[2-(4-fluorophenoxy)ethyl]acetamide]: the viability at 48 h, 25 µM was determined as 1.34%.

Consider `CC(Cl)C(=O)Nc1cc(F)ccc1F` (centres unmarked) [6-A09, 2-chloro-N-(2,5-difluorophenyl)propanamide], for which the viability at 48 h, 25 µM is 96%.

Turning to `Cc1cc(C)c(-c2cc(NC(=O)CCl)n(-c3ccccc3)n2)cc1C` [6-A10, 2-chloro-N-[1-phenyl-3-(2,4,5-trimethylphenyl)-1H-pyrazol-5-yl]acetamide], the viability at 48 h, 25 µM amounted to 0.264%.

For the compound `CC(Cl)C(=O)Nc1ccccc1C#N` (centres unmarked) [6-A11, 2-chloro-N-(2-cyanophenyl)propanamide], the viability at 48 h, 25 µM turned out to be 97.2%.

As for `Cc1ccc(C(=O)c2c(NC(=O)CCl)sc3c2CCCC3)cc1` [6-A12, 2-chloro-N-[3-(4-methylbenzoyl)-4,5,6,7-tetrahydro-1-benzothiophen-2-yl]acetamide], the viability at 48 h, 25 µM was 14%.

Take `O=C(CCl)Nc1ccc2c(c1)oc1ccccc12` [6-A13, 2-chloro-N-{8-oxatricyclo[7.4.0.0,2,7]trideca-1(9),2(7),3,5,10,12-hexaen-5-yl}acetamide]: the viability at 48 h, 25 µM is -0.0548%.

Consider `O=C(CCl)NCCOc1ccc2ccccc2c1` [6-A14, 2-chloro-N-[2-(naphthalen-2-yloxy)ethyl]acetamide], for which the viability at 48 h, 25 µM was found to be 0.0621%.

Regarding `CC(Cl)C(=O)Nc1cc(Cl)ccc1Cl` (centres unmarked) [6-A15, 2-chloro-N-(2,5-dichlorophenyl)propanamide], the viability at 48 h, 25 µM stood at 86.9%.

For the compound `COc1ccc(Cl)cc1CNC(=O)CCl` [6-A16, 2-chloro-N-[(5-chloro-2-methoxyphenyl)methyl]acetamide], the viability at 48 h, 25 µM was determined as 0.564%.

As for `N#CCCN(C(=O)CCl)c1cccc(Cl)c1` [6-A17, 2-chloro-N-(3-chlorophenyl)-N-(2-cyanoethyl)acetamide], the viability at 48 h, 25 µM is -0.154%.

As to `CC(NC(=O)CCl)c1ccc2ncsc2c1` (centres unmarked) [6-A18, N-[1-(1,3-benzothiazol-6-yl)ethyl]-2-chloroacetamide], the viability at 48 h, 25 µM is 2.3%.

Regarding `CN(CC1CCCCC1)C(=O)C(C)(C)NC(=O)CCl` [6-A19, 2-(2-chloroacetamido)-N-(cyclohexylmethyl)-N,2-dimethylpropanamide], the viability at 48 h, 25 µM came to 61.9%.

Take `CCC(C)n1nccc1NC(=O)C(C)Cl` (centres unmarked) [6-A20, N-[1-(butan-2-yl)-1H-pyrazol-5-yl]-2-chloropropanamide]: the viability at 48 h, 25 µM was 84.8%.

Regarding `CC(Cl)C(=O)Nc1sc2c(c1C(N)=O)CCC2` (centres unmarked) [6-A21, 2-(2-chloropropanamido)-4H,5H,6H-cyclopenta[b]thiophene-3-carboxamide], the viability at 48 h, 25 µM turned out to be 119%.

`O=C(CCl)NCc1ccccc1[N+](=O)[O-]` [6-A22, 2-chloro-N-[(2-nitrophenyl)methyl]acetamide]: the viability at 48 h, 25 µM came to 0.388%.

`O=C(CCl)Nc1ncc[nH]1` [6-B03, 2-chloro-N-(1H-imidazol-2-yl)acetamide hydrochloride]: the viability at 48 h, 25 µM was 37.4%.

As for `O=C(CCl)NCc1coc(Cl)n1` [6-B04, 2-chloro-N-[(2-chloro-1,3-oxazol-4-yl)methyl]acetamide], the viability at 48 h, 25 µM is 106%.

As for `CC(Cl)C(=O)NC1COCc2ccccc21` (centres unmarked) [6-B05, 2-chloro-N-(3,4-dihydro-1H-2-benzopyran-4-yl)propanamide], the viability at 48 h, 25 µM is 106%.

Take `CC(Cl)C(=O)Nc1ccc(S(N)(=O)=O)cc1` (centres unmarked) [6-B06, 2-chloro-N-(4-sulfamoylphenyl)propanamide]: the viability at 48 h, 25 µM was 101%.

In the case of `CC(Cl)C(=O)NCc1cc2sccc2s1` (centres unmarked) [6-B07, 2-chloro-N-({thieno[3,2-b]thiophen-2-yl}methyl)propanamide], the viability at 48 h, 25 µM turned out to be 109%.

In the case of `COc1ccc(NC(=O)C(C)Cl)c([N+](=O)[O-])c1` (centres unmarked) [6-B08, 2-chloro-N-(4-methoxy-2-nitrophenyl)propanamide], the viability at 48 h, 25 µM turned out to be 90.1%.

`Cn1ccc(-c2nc(CNC(=O)CCl)cs2)n1` [6-B09, 2-chloro-N-{[2-(1-methyl-1H-pyrazol-3-yl)-1,3-thiazol-4-yl]methyl}acetamide hydrochloride]: the viability at 48 h, 25 µM was found to be 1.33%.

`CC(C)NS(=O)(=O)c1ccc(NC(=O)C(C)Cl)cc1` (centres unmarked) [6-B10, 2-chloro-N-{4-[(propan-2-yl)sulfamoyl]phenyl}propanamide]: the viability at 48 h, 25 µM is 98.5%.

As for `CC(Cl)C(=O)N1CCN(C(=O)CN2C(=O)CCC2=O)CC1` (centres unmarked) [6-B11, 1-{2-[4-(2-chloropropanoyl)piperazin-1-yl]-2-oxoethyl}pyrrolidine-2,5-dione], the viability at 48 h, 25 µM was found to be 106%.

Turning to `CC(Cl)C(=O)N1CCN(S(=O)(=O)c2ccccc2)CC1` (centres unmarked) [6-B12, 1-[4-(benzenesulfonyl)piperazin-1-yl]-2-chloropropan-1-one], the viability at 48 h, 25 µM was 100%.

As to `COCC(NC(=O)C(C)Cl)c1ccccn1` (centres unmarked) [6-B13, 2-chloro-N-[2-methoxy-1-(pyridin-2-yl)ethyl]propanamide], the viability at 48 h, 25 µM came to 106%.

On to `CC(Cl)C(=O)NC1(c2noc(C(F)F)n2)CCC1` (centres unmarked) [6-B15, 2-chloro-N-{1-[5-(difluoromethyl)-1,2,4-oxadiazol-3-yl]cyclobutyl}propanamide], for which the viability at 48 h, 25 µM was 91.8%.

On to `CC(Cl)C(=O)NC(C)c1ccn(C)n1` (centres unmarked) [6-B16, 2-chloro-N-[1-(1-methyl-1H-pyrazol-3-yl)ethyl]propanamide], for which the viability at 48 h, 25 µM was determined as 103%.

For `COc1cccc([C@H]2C[C@H](N(C)C(=O)C(C)Cl)C2)c1` (some centres unmarked) [6-B17, 2-chloro-N-methyl-N-[(1r,3r)-3-(3-methoxyphenyl)cyclobutyl]propanamide], the viability at 48 h, 25 µM was found to be 79.7%.

Turning to `CC(Cl)C(=O)N(C)C1CCN(C(=O)c2ccccc2)CC1` (centres unmarked) [6-B18, N-(1-benzoylpiperidin-4-yl)-2-chloro-N-methylpropanamide], the viability at 48 h, 25 µM was 95.9%.

`CC(Cl)C(=O)N1CCCc2c1ccc1c2ncn1C` (centres unmarked) [6-B19, 2-chloro-1-{3-methyl-3H,6H,7H,8H,9H-imidazo[4,5-f]quinolin-6-yl}propan-1-one]: the viability at 48 h, 25 µM turned out to be 90.9%.

In the case of `CC(Cl)C(=O)NCC1(n2ccnn2)CC1` (centres unmarked) [6-B20, 2-chloro-N-{[1-(1H-1,2,3-triazol-1-yl)cyclopropyl]methyl}propanamide], the viability at 48 h, 25 µM amounted to 104%.

On to `CC(Cl)C(=O)N1CCc2oc(-c3ccccc3)cc2C1` (centres unmarked) [6-B21, 2-chloro-1-{2-phenyl-4H,5H,6H,7H-furo[3,2-c]pyridin-5-yl}propan-1-one], for which the viability at 48 h, 25 µM came to 67.2%.

As to `CC(Cl)C(=O)N[C@H]1C[C@H](C)S(=O)(=O)c2sccc21` (stereo partly drawn) [6-B22, 2-chloro-N-[(2S,4S)-2-methyl-1,1-dioxo-2H,3H,4H-1lambda6-thieno[2,3-b]thiopyran-4-yl]propanamide], the viability at 48 h, 25 µM amounted to 92.4%.

In the case of `CN(CCOc1ccccc1F)C(=O)CCl` [6-C03, 2-chloro-N-[2-(2-fluorophenoxy)ethyl]-N-methylacetamide], the viability at 48 h, 25 µM worked out at 1.83%.

Turning to `CC(C)(CNC(=O)CCl)CC1CCOCC1` [6-C04, 2-chloro-N-[2,2-dimethyl-3-(oxan-4-yl)propyl]acetamide], the viability at 48 h, 25 µM amounted to 130%.

Turning to `CC1(C)CN(C(=O)CCl)CCO1` [6-C05, 2-chloro-1-(2,2-dimethylmorpholin-4-yl)ethan-1-one], the viability at 48 h, 25 µM stood at 2.63%.

Turning to `Cc1ccccc1CC(C)NC(=O)CCl` (centres unmarked) [6-C06, 2-chloro-N-[1-(2-methylphenyl)propan-2-yl]acetamide], the viability at 48 h, 25 µM worked out at 75.4%.

As for `Cc1nn(C)c(C)c1NC(=O)C(C)Cl` (centres unmarked) [6-C07, 2-chloro-N-(1,3,5-trimethyl-1H-pyrazol-4-yl)propanamide], the viability at 48 h, 25 µM stood at 116%.

Consider `O=C(CCl)NCC(c1ccccc1)c1c[nH]c2ccccc12` (centres unmarked) [6-C08, 2-chloro-N-[2-(1H-indol-3-yl)-2-phenylethyl]acetamide], for which the viability at 48 h, 25 µM was 0.717%.

On to `COc1ccccc1CN(C)C(=O)CCl` [6-C09, 2-chloro-N-[(2-methoxyphenyl)methyl]-N-methylacetamide], for which the viability at 48 h, 25 µM is 1.06%.

With `CC1CCCCC1NC(=O)CCl` (centres unmarked) [6-C10, 2-chloro-N-(2-methylcyclohexyl)acetamide], the viability at 48 h, 25 µM amounted to 93.3%.

`N#CCSc1ccccc1NC(=O)CCl` [6-C11, 2-chloro-N-{2-[(cyanomethyl)sulfanyl]phenyl}acetamide]: the viability at 48 h, 25 µM came out at 2.08%.
